According to US7192742B2, “FO-6979 substances and process for producing the same” (Gakkou Houjin Kitasato Gakeun, priority 2001, dated 2007):
Read-outs that look alike come from different tables or passages of the source.

Tests used:
[1] = system: mouse peritoneal macrophage; assay: Toxicity test on growth of mouse peritoneal macrophage; type: cell-based; details: final concentration of 50 μM
mice = assay: Toxicity test, intraperitoneal administration in mice; type: in vivo; details: administered intraperitoneally, 100 mg/kg
Description: Next, toxicity test of FO-6979 substances of the present invention was explained hereinbelow.
No toxicity was noted when FO-6979-M0 substance, -M1 substance, -M2 substance, -M3 substance and -M4 substance was administered intraperitoneally in mice with 100 mg/kg.

[2] = molecular target: T1, acyl-CoA: cholesterol acyltransferase derived from mouse; assay: Acyl-CoA: cholesterol acyltransferase activity assay, mouse liver microsome membrane fraction, [1-14C] oleoyl-CoA; type: biochemical; details: 37° C. for 10 minutes, read-out: IC50, concentration which inhibits 50% of Acyl-CoA: cholesterol acyltransferase activity
T1 construct: A membrane fraction derived from mouse liver microsome was used as an enzyme origin
Description: Inhibitory activities of FO 6979-M0 substance, -M1 substance, -M2 substance, -M3 substance and -M4 substance of the present invention (hereinafter totally designates as FO-6979 substances) on acyl-CoA: cholesterol acyltransferase derived from mouse are explained hereinbelow.
Acyl-CoA: cholesterol acyltransferase activity was assayed by the modified method of Uelmen, et al. (J. Biol. Chem. 270: 26192–26201, 1995). A membrane fraction derived from mouse liver microsome was used as an enzyme origin. A mouse liver was homogenized with buffer A [50 mM Tris-HCL (pH 7.8), 1 mM EDTA and 1 mM phenylmethanesulfonyl fluoride] using Potter homogenizer (Tokyo-RIKO Inc.).
The homogenate was centrifuged at 12,000×g, and the supernatant solution was ultracentrifuged at 100,000×g to obtain the microsome fraction which was prepared for a solution with protein concentration 5 mg/ml by adding the buffer A. Assay of acyl-CoA: cholesterol acyltransferase activity was performed by adding enzyme 200 μg protein, […] bovine serumu alubumin, [1-^14C] oleoyl-CoA (final concentration 170 μM, 0.09 μCi) and each FO-6979 substance into the buffer A to prepare total 100 μl solution and incubated at 37° C. for 10 minutes.
Subsequently, the reaction was terminated by adding 0.5 ml ethanol and added 1.5 ml hexane therein, then stirred well. Hexane layer 1 ml was dried up and was spotted on TLC plate (silica gel plate, thickness 0.5 mm, Merck Co., U.S.A.) which was developed with a solvent mixture, petroleum ether/diethyl ether/acetic acid (90:10:1, v/v). The generated [^14C] cholesteryl olate was quantitative measured using radio scanner (Ambis Co.). Results indicating concentration which inhibits 50% of Acyl-CoA: cholesterol acyltransferase activity of FO-6979 substances (-M0 substance˜-M4 substance) (IC50) are shown in the following table.

Solubility in solvent = type: physicochemical
Excerpt: The thus obtained FO-6979-M0 substance, -M1 substance, -M2 substance, -M3 substance and -M4 substance exist in the cultured microorganism cells and the culture filtrate. Isolation of FO-6979-M0 substance, -M1 substance, -M2 substance, -M3 substance and -M4 substance from the cultured mass can be performed by extracting the whole cultured mass with water miscible organic solvent such as aceton, distilling off the organic solvent from the extract in vacuo, and extracting the residue with water immiscible organic solvent such as ethyl acetate. In addition to the above extraction procedure, conventional methods used for isolation of fat-soluble substances such as adsorption chromatography, gel filtration chromatography, thin-layer chromatography, counter current chromatography and high performance liquid chromatography can be used optionally in combination or repeatedly to isolate and purify FO-6979-M0 substance, -M1 substance, -M2 substance, -M3 substance and -M4 substance. Physicochemical properties of FO-6979 substances of the present invention are explained hereinbelow.

[3] = system: cholesteryl ester formation in mouse peritoneal macrophage; assay: Cholesteryl ester formation in mouse peritoneal macrophage ([14C] oleic acid incorporation); type: cell-based; details: for IC50: 14 hours incubation, read-out: IC50, generation of [14C] cholesteryl olate
Description: Inhibitory action of FO-6979 substances of the present invention on cholesteryl ester formation in mouse peritoneal macrophage is explained.
Cholesteryl ester formation and lipid droplets formation in mouse peritoneal macrophage were performed according to a method of Namatame et al.(J. Biochem. 125: 319–327, 1999). Macrophage isolated from mouse peritoneal fluid was suspended at 2.0×10^6 cells/ml in Dulbecco's modified Eagle's medium containing 6.8% lipoprotein deficient serum (6.8% LPDS-DMEM) and aliquots (0.25 ml) were dispensed into a 48-well microplate (Corning Co.).
(§1) The plate was incubated in a humidified 5% CO2 atmosphere incubator at 37° C. for 2 hours, after which each plate was washed with Hank's solution to remove the unattached cells. The plate was incubated in 6.8% LPDS-DMEM for 1 hour, and each one of FO-6979 substances (2.5 μl 1 methanol solution), liposome [consisting of phosphatidylcholine/phosphatidylserine/dicetylphosphate/cholesterol=10:10:2:15 (nmol) in 10 μl of 0.3 M glucose] and [1-^14C] oleic acid (5 μl, 0.05 μCi, 1 nmol) were added therein, then incubated further 14 hours.
After the incubation, supernatant was removed and the intracellular neutral lipids were extracted twice with adding hexane 0.6 ml and isopropanol 0.4 ml. The mixture was concentrated, spotted on TLC plate (silica gel plate, Merck Co., thickness 0.5 mm) and developed and with a mixed solvent of hexane/diethyl ether/acetia acid(70:30:1, v/v). The separated [^14C] cholesteryl olate and [^14C] triacylglycerol were quantitatively assayed using radio scanner (Ambis Co.).

[4] = system: lipid droplets formation in mouse peritoneal macrophage; assay: Lipid droplets formation in mouse peritoneal macrophage (oil red O / hematoxylin staining); type: cell-based; details: 20 μM, 14 hours
Description: Inhibitory action of FO-6979 substances of the present invention on lipid droplets formation in mouse peritoneal macrophage is explained.
Lipid droplets formation in mouse peritoneal macrophage was performed according to the method of Namatame et al. (J. Biochem. 125:319–327, 1999). Macrophage isolated from mouse peritoneal fluid was suspended at 2.0×10^6 cells/ml in Dulbecco's modified Eagle's medium containing 6.8% lipoprotein deficient serum (6.8% LPDS-DMEM) and aliquots (0.25 ml) were dispensed into a slide chamber (Nunc Co.).
as §1, with “chamber” for “plate”, “the chamber” for “each plate”, “FO-6979-M3 substance” for “each one of FO-6979 substances”, “μl” for “μl 1”, “solution) and” for “solution),”, “glucose]” for “glucose] and [1-^14C] oleic acid (5 μl, 0.05 μCi, 1 nmol)”
The lipid droplets and nuclei were double stained with oilred O and hematoxylin, and observed by optical microscope (Olympus OpticalCo., Japan).

[5] = Mus musculus, Peritoneal macrophage, 14 h

Compound | toxicity for growth of mouse peritoneal macrophage [1] | toxicity in mice (mice) | IC50 [2] [µM] | Solubility in solvent: methanol, benzene, chloroform and ethyl acetate (Solubility in solvent) | Solubility in solvent: water and hexane (Solubility in solvent) | IC50 [3] [µM] | IC50 [3, 5] [µM] | lipid droplets accumulated in cytoplasm, decreased to % as compared with no drug addition (control) [4] | inhibition at 45 µM ([3]; at 45 μM, read-out: inhibition of [14C] cholesteryl olate generation) [%]
CCCCC(C)C1CC(=O)N[C@@H](Cc2ccccc2)C(=O)N[C@@H](C)C(=O)N[C@H](C(C)C)C(=O)O1 (stereo partly drawn) [FO-6979-M3 substance] | No toxicity | No toxicity | 40 | soluble | slightly soluble | > 25 | 21 | about 50% | 
CCCCCCC(C)C1CC(=O)N[C@@H](C(C)C)C(=O)N[C@@H](C)C(=O)N[C@H]([C@@H](C)CC)C(=O)O1 (stereo partly drawn) [FO-6979-M4 substance] | No toxicity | No toxicity |  | soluble | slightly soluble |  |  |  | 
CCCCC(C)C1CC(=O)N[C@@H](C(C)C)C(=O)N[C@@H](C)C(=O)N[C@H](C(C)C)C(=O)O1 (stereo partly drawn) [FO-6979-M0 substance] | No toxicity | No toxicity | > 50 | soluble | slight soluble |  | > 25 |  | 
CCCCC(C)C1CC(=O)N[C@@H](C(C)C)C(=O)N[C@@H](C)C(=O)N[C@H](CC(C)C)C(=O)O1 (stereo partly drawn) [FO-6979-M2 substance] | No toxicity | No toxicity |  | Soluble | slightly soluble | > 25 |  |  | 
CCCCC(C)C1CC(=O)N[C@@H](C(C)C)C(=O)N[C@@H](C)C(=O)N[C@H]([C@@H](C)CC)C(=O)O1 (stereo partly drawn) [FO-6979-M1 substance] | No toxicity | No toxicity | > 50 | soluble | slightly soluble |  | > 45 |  | 20
